Tests used:
[1] = molecular target: T1, TG2-fibronectin (FN42) interaction (Homo sapiens, UniProt P21980); assay: TG2 interaction with fibronectin (FN42) ELISA; type: binding; details: 5 and 15 μM, with or without 1 mM CaCl2, Fig 2E, 2F
T1 construct: purchased Zedira
T1 sequence (P21980 1-687): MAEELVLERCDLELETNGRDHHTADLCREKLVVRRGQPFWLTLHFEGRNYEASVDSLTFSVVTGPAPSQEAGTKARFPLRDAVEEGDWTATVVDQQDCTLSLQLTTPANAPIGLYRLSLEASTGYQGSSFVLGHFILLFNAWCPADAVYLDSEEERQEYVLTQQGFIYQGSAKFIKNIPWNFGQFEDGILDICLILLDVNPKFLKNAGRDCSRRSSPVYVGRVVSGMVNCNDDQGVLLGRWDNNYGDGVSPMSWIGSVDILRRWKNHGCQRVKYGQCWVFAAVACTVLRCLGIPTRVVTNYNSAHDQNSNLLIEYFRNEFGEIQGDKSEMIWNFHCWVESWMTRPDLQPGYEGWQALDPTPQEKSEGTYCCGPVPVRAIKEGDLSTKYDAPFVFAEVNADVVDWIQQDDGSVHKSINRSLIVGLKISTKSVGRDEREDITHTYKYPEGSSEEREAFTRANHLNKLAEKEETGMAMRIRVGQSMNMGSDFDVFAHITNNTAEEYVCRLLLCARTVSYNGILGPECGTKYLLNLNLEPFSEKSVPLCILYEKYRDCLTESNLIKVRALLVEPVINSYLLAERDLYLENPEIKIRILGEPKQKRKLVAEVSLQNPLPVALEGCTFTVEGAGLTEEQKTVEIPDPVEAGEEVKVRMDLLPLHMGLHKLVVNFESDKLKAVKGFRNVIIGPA
Procedure: To determine the potential effect of BJJF078 and ERW1041E on the interaction of TG2 with fibronectin, ELISA experiments were performed as described previously. Briefly, 96 well ELISA plates (Nunc, Maxisorp) were coated with 100 μg/ml mouse anti his-tag monoclonal antibody (Roche) in PBS at 4°C overnight. This was followed by simultaneous washing and blocking with 0.5% BSA in PBS (3x 10 min). Per well 50 μl of a 10 nM human recombinant TG2 (his-tagged, Zedira) solution in PBS was added. Into each well (triplicates) either DMSO (control, 1% final concentration) or TG2 inhibitors (BJJF078, ERW1041E, final concentration 5 and 15 μM in 1% DMSO) were added. As a positive control similar concentrations of TG53, a small molecule that inhibits the interaction between TG2 and fibronectin was added (kindly provided by Prof D. Matei, Northwestern University, Chicago, USA). […] After 1 h incubation at RT, 50 μl of 10 nM FN42-biotin solution (kindly provided by Prof D. Matei) was added to the wells. After an additional 1 h incubation at RT and washing steps (3x 10 min) with 0.5% BSA in PBS, 100 μl streptavidin-HRPO conjugate (from kit opr001, Covalab) was added and incubated for 1 h at RT. This was followed by another series of washes and the colour reaction started with 100 μl of 3,3′,5,5′ tetramethylbenzidine substrate (TMB, from kit opr001, Covalab). After sufficient colour development (15 min), the reaction was stopped with 1M HCl and absorbance was measured at 450 nm.

[2] = molecular target: T2, human TG2 in THP-1/TG2 macrophages (Homo sapiens, UniProt P21980); assay: Cellular inhibition of TG activity in THP-1/TG2 cells (BAP incorporation); type: cell-based; details: TG2 overexpressing THP-1 macrophages, Fig 2D
T2 construct: expressed in transfected cells; host or cells: THP-1 (TIB-202, ATCC) stably transduced with lentiviral pCDH-hTG2, PMA-differentiated, retinoic acid-stimulated
T2 sequence (P21980 1-687): T1 sequence (P21980 1-687)
Procedure: Human monocytic THP-1 cells (TIB-202, ATCC) were transduced with a lentiviral vector (pCDH-hTG2, gift from Prof K. Mehta, University of Texas, USA) to overexpress human TG2, to ensure high protein levels in addition to their constitutive expression that can be inhibited. To obtain a stable TG2 overexpressing cell line, transduced cells (THP-1/pCDH-hTG2 (THP-1/TG2)) were positively selected with puromycin and cultured at 37°C and 5% CO2 in air in RPMI-1640 medium (Gibco) supplemented with 10% fetal calf serum (FCS; Gibco), and 50 Units/ml of penicillin and 50 μg/ml streptomycin (Gibco).
THP-1/TG2 cells cultured with 3% FCS were differentiated into macrophages with 250 nM phorbol-12-myristate-13-acetate (Sigma) for 48 h hours. Simultaneously, the cells were stimulated with 1 μM retinoic acid (Fluka) as TG2 expression inducer to ensure maximal TG2 expression and activity. The in vitro TG activity inhibition assay was performed as previously described. In detail, the cells were washed with serum free medium and incubated for 4 h (37°C, 5% CO2) with 1 mM of the TG substrate 5-(biotinamido) pentylamine (BAP, Pierce) in serum free medium. […] The total protein concentration was determined with the BCA method (Pierce, according to protocol) and adjusted to the same concentration in all samples. […] The optical density at 492 nm was measured.

For `C=CC(=O)NC1CCN(S(=O)(=O)c2cccc3c(NC(=O)c4ccc(OC)c(OC)c4)cccc23)CC1` [BJJF078, 3,4-Dimethoxy-N-(5-[4-(acryloylamino)piperidine-1-sulfonyl]-naphthalen-1-yl)-benzamide], the “effect on binding of TG2 to fibronectin (FN42)” value [1] was “did not interfere” and the IC50 ([2]; read-out: IC50 cellular TG2 transamidating activity) was 1800 nM.

`O=C(NCC1CC(Br)=NO1)C1CCCN1C(=O)OCc1cnc2ccccc2c1` (stereo not shown) [ERW1041E, 2-[(3-Bromo-4,5-dihydro-isoxazol-5-ylmethyl)-carbamoyl]-pyrrolidine-1—carboxylic acid quinolin-3-ylmethyl ester] was tested, and the “effect on binding of TG2 to fibronectin (FN42)” value [1] was “did not interfere” and the “effect on cellular TG2 activity” value ([2]; 0.03 to 100 μM) was “no effect”.

Source: publication PMC5918173, “Characterization of Transglutaminase 2 activity inhibitors in monocytes in vitro and their effect in a mouse model for multiple sclerosis” (PLoS ONE, 2018)
